Experimental data from US20100267561A1, “HERBICIDAL PYRIDAZINONE DERIVATIVES” (priority 2007, published 2010).

What was measured:
Type in all cases: in vivo
[1] = system: wheat (Triticum aestivum); test: Test A pre-/postemergence plant response
Procedure, shortened: (§1)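 Seeds sown in loam–sand blend; test chemicals in non-phytotoxic solvent with surfactant applied preemergence as directed soil spray and, concurrently, postemergence to plants 2–10 cm tall at one- to two-leaf stage. Greenhouse ~10 days, then visual injury rating vs untreated controls on 0–100 scale (0 = no effect, 100 = complete control).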

[2] = system: pigweed (Amaranthus retroflexus); test: Test A pre-/postemergence plant response
Procedure, shortened: as §1

[3] = system: barnyardgrass (Echinochloa crus-galli); test: Test A pre-/postemergence plant response
Procedure, shortened: as §1

[4] = system: blackgrass (Alopecurus myosuroides); test: Test A pre-/postemergence plant response
Procedure, shortened: as §1

[5] = system: canarygrass (Phalaris minor); test: Test A pre-/postemergence plant response
Procedure, shortened: as §1

corn (Zea mays) = test: Test A pre-/postemergence plant response
Procedure, shortened: as §1

[6] = system: large crabgrass (Digitaria sanguinalis); test: Test A pre-/postemergence plant response
Procedure, shortened: as §1

[7] = system: giant foxtail (Setaria faberi); test: Test A pre-/postemergence plant response
Procedure, shortened: as §1

[8] = system: barnyardgrass (Echinochloa crus-galli); test: Test B flooded paddy test plant response
Procedure, shortened: (§2)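 Paddy-water application to 2-leaf plants in pots held under 3 cm of flooding; response is a 0–100 visual control rating against controls after 13 to 15 days, and a dash marks a missing result.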

[9] = system: ducksalad (Heteranthera limosa); test: Test B flooded paddy test plant response
Procedure, shortened: as §2

[10] = system: umbrella sedge (Cyperus difformis); test: Test B flooded paddy test plant response
Procedure, shortened: as §2

rice (Oryza sativa) = test: Test B flooded paddy test plant response
Procedure, shortened: as §2

[11] = Postemergence, 31 g ai/ha, 0 to 100 scale (0 no effect, 100 complete control)
[12] = Postemergence, 125 g ai/ha, 0 to 100 scale, 0 no effect, 100 complete control
[13] = Preemergence, 31 g ai/ha, 0 to 100 scale, 0 is no effect, 100 is complete control
[14] = Preemergence, 125 g ai/ha, 0 to 100 scale (0 no effect, 100 complete control)
[15] = Flood (flooded paddy test), 250 g ai/ha, scale 0 to 100, 0 no effect, 100 complete control
[16] = Flood, 62 g ai/ha, scale 0 to 100

SMILES: Cc1cn(-c2ccc(Cl)cn2)nc1-c1c(O)cnn(C)c1=O [Compound 84]
- Plant response rating, Wheat [1, 11]: 0
- Plant response rating, Wheat [1, 12]: 0
- Plant response rating, Wheat [1, 13]: 0
- Plant response rating, Wheat [1, 14]: 0
- Plant response rating, Pigweed [2, 11]: 0
- Plant response rating, Pigweed [2, 12]: 0
- Plant response rating, Pigweed [2, 13]: 0
- Plant response rating, Pigweed [2, 14]: 0
- Plant response rating, Barnyardgrass [3, 11]: 0
- Plant response rating, Barnyardgrass [3, 12]: 0
- Plant response rating, Barnyardgrass [3, 13]: 0
- Plant response rating, Barnyardgrass [3, 14]: 0
- Plant response rating, Blackgrass [4, 11]: 0
- Plant response rating, Blackgrass [4, 12]: 0
- Plant response rating, Blackgrass [4, 13]: 0
- Plant response rating, Blackgrass [4, 14]: 0
- Plant response rating, Canarygrass [5, 11]: 0
- Plant response rating, Canarygrass [5, 12]: 0
- Plant response rating, Canarygrass [5, 13]: 0
- Plant response rating, Canarygrass [5, 14]: 0
- Plant response rating, Corn (corn (Zea mays); [11]): 0
- Plant response rating, Corn (corn (Zea mays); [12]): 0
- Plant response rating, Corn (corn (Zea mays); [13]): 0
- Plant response rating, Corn (corn (Zea mays); [14]): 0
- Plant response rating, Crabgrass, Large [6, 11]: 0
- Plant response rating, Crabgrass, Large [6, 12]: 10
- Plant response rating, Crabgrass, Large [6, 13]: 0
- Plant response rating, Crabgrass, Large [6, 14]: 0
- Plant response rating, Foxtail, Giant [7, 11]: 0
- Plant response rating, Foxtail, Giant [7, 12]: 10
- Plant response rating, Foxtail, Giant [7, 13]: 0
- Plant response rating, Foxtail, Giant [7, 14]: 0
- Plant response rating, Barnyardgrass [8, 15]: 0
- Plant response rating, Barnyardgrass [8, 16]: 0
- Plant response rating, Ducksalad [9, 15]: 0
- Plant response rating, Ducksalad [9, 16]: 0
- Plant response rating, Sedge, Umbrella [10, 15]: 0
- Plant response rating, Sedge, Umbrella [10, 16]: 0
- Plant response rating, Rice (rice (Oryza sativa); [15]): 0
- Plant response rating, Rice (rice (Oryza sativa); [16]): 0
